The source of these data is patent EP4778924A1 (Huons Co., Ltd., priority 2023, dated 2025).

The test system of experiment [1] is Pylorus-Ligated Rats. Briefly: Inhibitory activity on basal gastric acid secretion in pylorus-ligated rats (Shay's rat model). In kind it is in vivo, male Sprague Dawley (SD) rats. The following applies: for inhibition in vivo at 2 mg/kg: Rattus norvegicus, po, read-out: GERD (rat/mpk); for inhibitory activity against basal gastric acid secretion: result in words, pyloric-ligated rats, 2 mg/kg oral. The protocol: Specifically, male Sprague Dawley (SD) rats (weighing 180-220 g) were fasted for 24 hours with only water, and then randomly assigned to groups (n=4-5) after measuring body weight. The negative control group was orally administered 10% dimethylsulfoxide (DMSO)/10% Cremophor EL/80% D.W. at 2 mL/kg, and the test group was orally administered the test compound at 2 mg/kg/2 mL. One hour after administration, the rats' abdominal cavity was incised under isoflurane anesthesia, the stomach was exposed, and the pylorus was ligated. Three hours after ligation, the test animals were sacrificed and the stomach contents were collected by laparotomy again. The contents were centrifuged (3,000 rpm, 10 min), and only the supernatant was separated to obtain gastric juice. Afterwards, gastric fluid volume measurement, gastric fluid pH measurement, NaOH titration, and total gastric acid secretion calculation (gastric fluid volume × 0.1 N NaOH titer × 100) were sequentially performed.

For experiment [2], the target named is T1, Proton Pump (H^+,K^+-ATPase) (Sus scrofa, UniProt P19156).
T1 construct: gastric vesicles were isolated from porcine stomachs; from tissue; host or cells: porcine stomach (gastric vesicles)
T1 sequence (P19156 2-1034 limits assumed): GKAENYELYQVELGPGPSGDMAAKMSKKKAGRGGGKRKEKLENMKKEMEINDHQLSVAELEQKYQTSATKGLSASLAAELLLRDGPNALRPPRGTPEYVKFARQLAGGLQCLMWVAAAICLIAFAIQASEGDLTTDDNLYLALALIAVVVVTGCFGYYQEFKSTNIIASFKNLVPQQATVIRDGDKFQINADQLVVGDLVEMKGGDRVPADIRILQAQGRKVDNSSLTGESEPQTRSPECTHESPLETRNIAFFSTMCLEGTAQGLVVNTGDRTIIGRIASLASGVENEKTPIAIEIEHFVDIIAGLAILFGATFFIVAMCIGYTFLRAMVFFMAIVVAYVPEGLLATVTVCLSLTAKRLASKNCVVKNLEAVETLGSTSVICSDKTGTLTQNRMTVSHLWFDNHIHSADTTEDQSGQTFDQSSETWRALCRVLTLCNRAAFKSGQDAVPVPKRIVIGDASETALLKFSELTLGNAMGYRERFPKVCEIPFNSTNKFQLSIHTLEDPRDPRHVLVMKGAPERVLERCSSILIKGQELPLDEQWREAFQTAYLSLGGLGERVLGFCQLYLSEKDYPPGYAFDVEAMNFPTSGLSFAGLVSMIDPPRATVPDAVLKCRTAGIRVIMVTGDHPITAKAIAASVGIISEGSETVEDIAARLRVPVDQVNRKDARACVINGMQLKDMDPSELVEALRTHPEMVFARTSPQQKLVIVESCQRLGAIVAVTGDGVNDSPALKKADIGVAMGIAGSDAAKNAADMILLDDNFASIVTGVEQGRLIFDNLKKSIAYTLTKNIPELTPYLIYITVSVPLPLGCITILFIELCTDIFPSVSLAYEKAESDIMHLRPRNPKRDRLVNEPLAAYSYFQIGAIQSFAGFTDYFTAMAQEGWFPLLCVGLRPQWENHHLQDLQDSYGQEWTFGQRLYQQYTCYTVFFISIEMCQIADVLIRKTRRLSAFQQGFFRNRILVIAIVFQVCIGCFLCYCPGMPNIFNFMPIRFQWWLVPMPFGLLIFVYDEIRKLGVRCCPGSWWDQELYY
T1 sequence (P18434 whole entry partner): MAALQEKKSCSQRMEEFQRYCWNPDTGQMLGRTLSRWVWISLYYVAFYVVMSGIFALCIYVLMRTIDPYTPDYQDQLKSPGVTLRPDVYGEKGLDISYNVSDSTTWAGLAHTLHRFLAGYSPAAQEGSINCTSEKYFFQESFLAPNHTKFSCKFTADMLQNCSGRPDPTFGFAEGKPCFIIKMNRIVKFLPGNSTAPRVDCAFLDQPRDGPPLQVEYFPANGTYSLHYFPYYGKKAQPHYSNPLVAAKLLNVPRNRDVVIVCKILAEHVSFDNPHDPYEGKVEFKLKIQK
Description: Inhibitory activity on proton pump (H+,K+-ATPase) activity, porcine gastric vesicles, malachite green readout. The class given is biochemical. The following applies: for IC50: porcine gastric vesicles, pH 6.5, 8 mM KCl, 0.2 mM ATP; for inhibitory activity against proton pump activity: result in words. Put shortly: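 Porcine gastric vesicles (100 ng) preincubated 30 min at 37°C with […] valinomycin and compound (0.1% DMSO final) in 50 mM Tris-HEPES, 5 mM MgCl2, 8 mM KCl, pH 6.5, then 0.2 mM ATP for 20 min at 37°C. Released phosphate measured by malachite green at 620 nm; IC50 via nonlinear regression of % inhibition.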

Molecules are shown by their SMILES. A value given as a limit tells only on which side of the number the result lay.

As a reminder, the IC50 is the concentration that gives 50% inhibition. A high value points to weaker potency. With `Cc1cccc(C)c1CNc1cc(NC(=O)CO)cn2c(C)c(C)nc12` [Example 26, N-(8-((2,6-dimethylbenzyl)amino)-2,3-dimethylimidazo[1,2-a]pyridin-6-yl)-2-hydroxyacetamide], in experiment [1], the inhibition in vivo at 2 mg/kg is at least 90% and the “inhibitory activity against basal gastric acid secretion” value is reported as “inhibitory activity”. Besides, in experiment [2], the IC50 was under 50 nM and the “inhibitory activity against proton pump activity” value is recorded as “excellent inhibitory properties”.

With `CC(=O)Nc1cc(NCc2c(C)cc(F)cc2C)c2nc(C)c(C)n2c1` [Example 21, N-(8-((4-fluoro-2,6-dimethylbenzyl)amino)-2,3-dimethylimidazo[1,2-a]pyridin-6-yl)acetamide], in experiment [1], the inhibition in vivo at 2 mg/kg was at least 90% and the “inhibitory activity against basal gastric acid secretion” value is “inhibitory activity”. In experiment [2], the IC50 is under 50 nM and the “inhibitory activity against proton pump activity” value is on record as “excellent inhibitory properties”.

In the case of `COCC(=O)Nc1cc(NCc2c(C)cccc2C)c2nc(C)c(C)n2c1` [Example 15, N-(8-((2,6-dimethylbenzyl)amino)-2,3-dimethylimidazo[1,2-a]pyridin-6-yl)-2-methoxyacetamide], in experiment [1], the inhibition in vivo at 2 mg/kg is at least 90% and the “inhibitory activity against basal gastric acid secretion” value is “inhibitory activity”. In experiment [2], the IC50 is under 50 nM and the “inhibitory activity against proton pump activity” value is listed as “excellent inhibitory properties”.
